Experimental data taken from the METLIN SMRT retention time set (Domingo-Almenara et al. 2019).

Test: gradient 5% acetonitrile 3 min, to 50% in 2 min, to 85% in 15 min, held 3 min, 100 µL/min
Conditions: column: Zorbax Extend-C18 2.1 x 50 mm; eluents: water / acetonitrile, 0.1% formic acid
How it was run: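 Retention times of pure standards were taken from adduct peaks that were selected by computer and manually inspected. Over 3 months, mixtures of ~100 molecules were run by HPLC–quadrupole time-of-flight mass spectrometry in positive and negative ionization mode. The Zorbax Extend-C18 column (2.1 × 50 mm, 1.8 μm) ran at 100 μL/min in water and acetonitrile, each containing 0.1% formic acid, with 40 μL dead volume and 900 μL dwell volume.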

Structure (SMILES) | RP-LC retention time [s]
CCN1C(=O)CCc2cc(NC(=O)c3ccc(C)s3)ccc21 | 800
COc1cc(NC(=O)NC2CCN(c3cc(N4CCOCC4)cnn3)C2)cc(OC)c1 (stereo unspecified) | 629
O=c1n(Cc2cccc(F)c2)nc2c(S(=O)(=O)N3CCCC3)cccn12 | 1050
CC(C)CC(=O)NCCn1c(=O)n(Cc2ccc(F)cc2)c2cccnc21 | 750
CCCn1ccc2sc(C)c(C(=O)NCc3ccccc3F)c2c1=O | 908
Cc1ccc(Nc2c(-c3ccc(O)cc3)nc3ccc(C)cn23)cc1 | 721
CCN(CC)CCNC(=O)c1cc(S(C)(=O)=O)ccc1OC | 617
CCc1ccc(S(=O)(=O)NCCc2cn(CC(C)C)c3ncccc23)cc1 | 946
CN(CC1(C)CCOCC1)S(=O)(=O)c1ccc(C(F)(F)F)cc1 | 997
Cc1cc(C)cc(-c2nnc(Cc3nc(-c4ccc5c(c4)OCO5)no3)o2)c1 | 1070
CCn1c(=O)c2ccccc2n(Cc2nc(-c3cccc(Br)c3)no2)c1=O | 1120
CC(=O)c1ccc(NS(=O)(=O)c2ccc(-c3c(C)noc3C)cc2)cc1 | 813
Cn1c(CNC(=O)CSc2nnc3c4ccccc4nc(-c4ccco4)n23)nc2ccccc21 | 632
COc1cccc(S(=O)(=O)N2CCC3(C2)C(=O)N(C)c2ccc(OC)cc23)c1 (stereo unspecified) | 904
CCOc1ccc(-c2csc(Cc3nc(-c4ccc5c(c4)OCO5)no3)n2)cc1 | 1200
CCCNC(=O)CN1C(=O)C2CCCCN2c2ccc(S(=O)(=O)N3CCCC3)cc21 (stereo unspecified) | 800

Structure (SMILES) | RP-LC retention time [s]
COc1cc(NC(=O)NC(C)C)c2ncccc2c1 | 757
O=C(Cn1ncccc1=O)NCc1ccco1 | 542
COc1ccc(NC(=O)c2c(C)oc3nc(C)nc(N4CCOCC4)c23)cc1 | 706
Cc1[nH]c(C(=O)N2CCC(CC(=O)NCCCN3CCCCC3)CC2)c(C)c1C | 606
Cc1nc(-c2cc(S(=O)(=O)Nc3ccc(Br)cc3C)c(C)s2)cs1 | 1100
CCc1nnc(-c2cc(C)n(CC(=O)Nc3cc(C)cc(C)c3)c2C)o1 | 887
O=C(c1cccs1)N1CCCCC1c1nncn1CC1CC1 (stereo unspecified) | 690
CCc1ccc(C2=C(C)C(N3CCCN(C(=O)CC(C)C)CC3)=NS2(=O)=O)cc1 | 874
CCc1noc(NC(C)=O)c1-c1ccc(C)c(S(=O)(=O)Nc2cccc(Cl)c2)c1 | 867
COc1ccc(OC)c(CNC(=O)CN2CCN(Cc3ccc(F)cc3)C2=O)c1 | 787
CSc1ccc(-c2nc3cnccn3c2Nc2cccc(C(=O)O)c2)cc1 | 744
Cc1cc(C)cc(NC(=O)c2cccn2Cc2noc(C)n2)c1 | 928
Fc1ccc(-c2noc(-c3ccc(NCCN4CCOCC4)nc3)n2)cc1 | 687
CCCCN1CCN(Cc2nc(-c3ccc(N4CCOCC4)nc3)no2)CC1 | 587
CCN1C(=O)COc2ccc(-c3noc(Cc4ccc(Cl)cc4)n3)cc21 | 1100
COC(=O)C1=C(C)NC(C)=C(C(=O)OCCSc2ccccc2)C1C (stereo unspecified) | 1080

Further lines, results first:

RP-LC retention time [s] | Structure (SMILES)
713 | CCOC(=O)N1CCN(C(=O)CCc2csc(NC(=O)c3ccc(F)cc3)n2)CC1
675 | CCOC(=O)C1=C(CN2CCN(Cc3ccc4c(c3)OCO4)CC2)NC(=O)NC1c1ccc(F)cc1 (stereo unspecified)
1110 | CCn1c(C(=O)NCc2ccccc2)cc2sc(Cl)cc21
740 | COc1ccc(NC(=O)C2CC(=O)N(c3ccc4c(c3)CCN4C(=O)C3CC3)C2)cc1 (stereo unspecified)
643 | CCN1CCCC(C(=O)NCc2cccs2)(c2ccccc2)CC1 (stereo unspecified)
906 | CC(NC(=O)C1CCN(C(=O)N2CCOc3ccc(Cl)cc32)CC1)c1ccccc1 (stereo unspecified)
880 | COC(=O)c1c(C)[nH]c(C(=O)N2CCC(CC(=O)NC(C)CCc3ccccc3)CC2)c1C (stereo unspecified)
837 | O=C(c1c(OCC2CC2)cc(=O)n2c1CCCCC2)N1CCc2ccccc2C1
651 | O=C(NCCCN1CCOCC1)C1CCCN(c2nccnc2Sc2ccccc2)C1 (stereo unspecified)
756 | CCC(C)NC(=O)CS(=O)Cc1cnn(-c2ccccc2)c1-n1cccc1 (stereo unspecified)
1110 | Cc1sc(NC(=O)Cn2c(=O)sc3ccccc32)nc1-c1ccc(Cl)cc1
846 | COc1ccc(-c2nsc(SCC(=O)N3CCCCCC3)n2)cc1
1190 | CC1Oc2ccccc2N(Cc2nc(-c3ccc(Cl)c(F)c3)no2)C1=O (stereo unspecified)
916 | Cc1cc2c(cc1S(=O)(=O)N1CCCC1C(=O)Nc1ccc(C(C)C)cc1)OC(C)C(=O)N2 (stereo unspecified)
936 | Cc1ccccc1CNc1nnc(-c2nc(C3CC3)no2)c2ccccc12
1200 | Cc1cc(-c2csc(S(=O)(=O)N3CCN(C(c4ccccc4)c4ccccc4)CC3)c2)on1
902 | COc1ccc(-c2cc3nn(CC(=O)N4CCCC(C)C4)c(=O)n3c(C)n2)cc1 (stereo unspecified)

RP-LC retention time [s] | Structure (SMILES)
887 | CCOc1ccccc1NC(=O)CN1C(=O)C2CCCCN2c2ccc(S(=O)(=O)N(C)C)cc21 (stereo unspecified)
1040 | Cc1nn(-c2ccccc2)c(C)c1S(=O)(=O)N1CCC(C(=O)Nc2cccc(Cl)c2)CC1
775 | Clc1cccc(CN2CCc3nc(N4CCN(c5ccccc5)CC4)ncc3C2)c1
734 | O=C(c1nnc(-c2ccc(S(=O)(=O)N3CCOCC3)cc2)o1)N1CCCC1
664 | Cc1ccc(Nc2cc(N3CCC(C(=O)NCc4ccco4)CC3)ncn2)cc1
620 | COc1ccc(C2=C(C)C(N3CCN(c4ccccn4)CC3)=NS2(=O)=O)cc1
1010 | Cc1cccc(NC(=O)C2CCN(S(=O)(=O)c3ccc4c(c3)sc(=O)n4C(C)C)CC2)c1
600 | CC(=O)NCc1nc2ccccc2n1CC(=O)Nc1ccccc1
917 | Cc1c(Cl)cccc1NC(=O)Cn1nc(C(=O)N2CCCCC2)c2ccccc21
799 | CC(C)n1cnc(S(=O)(=O)N2CCC(C(=O)N3CCN(c4ccc(F)cc4)CC3)CC2)c1
826 | O=C(c1cn2nc(Cl)ccc2n1)N1CCN(c2ccc(F)cc2)CC1
947 | CCOC(=O)c1ccc(NC(=O)c2cc3ccccc3c(=O)s2)cc1
786 | CC(C)CC(=O)Nc1cc2c(cc1S(=O)(=O)c1ccccc1)n(C)c(=O)n2C
912 | Cc1ccc(CNC(=O)C2CCN(S(C)(=O)=O)c3cc(C)ccc3O2)cc1 (stereo unspecified)
582 | O=C(NCCc1c[nH]c2ccccc12)C(=O)NCC(c1ccco1)N1CCOCC1 (stereo unspecified)
806 | CC(C)C(=O)Nc1ccc(-n2cnc(C(=O)NC3CCCCCC3)c2)nc1
765 | CCOC(=O)N1CCN(C(=O)CSc2ccc(C)cc2)CC1
